Test results as given in US20220308062A1, “METHODS FOR PREDICTING DRUG RESPONSIVENESS IN SAMPLES FROM CANCER SUBJECTS” (Board of Regents, The University of Texas System, priority 2019, published 2022).

Tested on: patient-derived organoids (PDOs)
Test: Patient-derived organoid CellTiter-Glo cell viability
Type: cell-based, human
Description: Patient-derived organoids (PDOs). Tumor tissues were minced on ice into 1 mm^3 small pieces. Tumor pieces (˜20 μl in volume) were resuspended in 200 μl Matrigel and seeded into 24 well plates for 15 min until gel solidify, followed by culture in advanced DMEM/F12 medium supplemented with B27 and N2 (Thermo Fisher Scientific), 0.01% BSA (Roche), 100 units/m penicillin-streptomycin (Thermo Fisher Scientific), and others (Table 4) for 4-8 weeks to grow organoids. […] The CellTiter-Glo Luminescent Cell Viability assay was used to determine drug responsiveness.

Structure (SMILES): CN1CCN(Cc2ccc(Nc3ncc(Cl)c(Nc4ccccc4S(=O)(=O)N(C)C)n3)cc2)CC1 [TP-0903]
- PDO sensitivity (PDOs from tumors with high AXL and JAK1): sensitive
- PDO response (cell viability) (PDOs of Pt 008 and 010 (Category I/II), TP-0903 20 nmol/L or ruxolitinib 15 μmol/L, 72 hr): did not respond robustly
